Measured values as given in patent US20240148821A1, “PHARMACEUTICAL USE OF CYCLIC PEPTIDE COMPOUND” (CHUGAI SEIYAKU KABUSHIKI KAISHA, priority 2021, published 2024).
Numbered stars: 1 amine (or outer) side, 2 acyl side, 3 side chain; on linkers, the order of the positions; unused ones are H or OH. Bridge positions count the residues as written; N and C are the ends. Square brackets hold non-standard residues; d marks the D form. Peptide text beside a SMILES is read from it. * marks the point of attachment. hPhe(3-Cl-4-CF3) = N[C@@H](CCc1ccc(C(F)(F)F)c(Cl)c1)C(=O)O; hPhe(3-F,4-CF3) = N[C@@H](CCc1ccc(C(F)(F)F)c(F)c1)C(=O)O; NMePhe(4-CF3) = CN[C@@H](Cc1ccc(C(F)(F)F)cc1)C(=O)O; hPhe(4-CF3) = N[C@@H](CCc1ccc(C(F)(F)F)cc1)C(=O)O; NMePhe(4-Cl) = CN[C@@H](Cc1ccc(Cl)cc1)C(=O)O; NMePhe(4-Me) = CN[C@@H](Cc1ccc(C)cc1)C(=O)O; hPhe(3-Cl) = N[C@@H](CCc1cccc(Cl)c1)C(=O)O; NMedβ3hAla = C[C@H](CC(=O)[*:2])N(C)[*:1]; NMeGly(cPent) = CN[C@H](C(=O)O)C1CCCC1; NMeCha = CN[C@@H](CC1CCCCC1)C(=O)O; X4 = C#CC[C@H](CC(=O)[*:2])N[*:1]; Gly(N-(CH2)2OEt) = CCOCCNCC(=O)O; NMeCba = CN[C@@H](CC1CCC1)C(=O)O; NMeChg = CN[C@H](C(=O)O)C1CCCCC1; NMeI = CC[C@H](C)[C@H](NC)C(=O)O; NMeT = CN[C@H](C(=O)O)[C@@H](C)O; X12 = O=C(CN(CC1COC1)[*:1])[*:2]; NMeE = CN[C@@H](CCC(=O)O)C(=O)O; NMeD = CN[C@@H](CC(=O)O)C(=O)O; NMeL = CN[C@@H](CC(C)C)C(=O)O; Chg = N[C@H](C(=O)O)C1CCCCC1; NMeNva = CCC[C@H](NC)C(=O)O; NMeV = CN[C@H](C(=O)O)C(C)C; d(β3hA) = C[C@@H](N)CC(=O)O; NMeS = CN[C@@H](CO)C(=O)O; Morpholide = C1CN(*)CCO1; NMeA = CN[C@@H](C)C(=O)O; Piperidide = C1CCN(*)CC1; Ac5c = NC1(C(=O)O)CCCC1; Aze = O=C(O)[C@@H]1CCN1; CH2CMe2OH = CC(C)(O)C*; Aib = CC(C)(N)C(=O)O; Sar = CNCC(=O)O

Molecular target: protein-protein interaction between Kras and SOS1 (biotin-tagged human Kras loaded with GDP, His-tagged human SOS1) (Homo sapiens (Human), UniProt P01116, G12D)
Assay: Protein-protein interaction inhibition between Kras and SOS1 (KrasG12D-SOS PPI) using AlphaScreen;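 further: kras produced in E. coli, Ni-coupled donor beads and streptavidin acceptor beads, excitation 680 nm with emission detected at 520–620 nm via singlet oxygen transfer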
Format: biochemical
Conditions: AlphaScreen; biotin-tagged human Kras loaded with GDP, His-tagged human SOS1; read-out: KRAS G12D-SOS PPI IC50

Row | SMILES | IC50 [nM]
1 | CC[C@H](C)[C@@H]1NC(=O)[C@H](CC(C)C)N(C)C(=O)C[C@@H](C)NC(=O)[C@H](C(C)C)N(C)C(=O)C2(CCCC2)NC(=O)[C@@H]2CCCN2C(=O)[C@H](CCc2ccc(C(F)(F)F)c(Cl)c2)NC(=O)CN(C)C(=O)[C@H](CC2CCCCC2)N(C)C(=O)[C@@H]2CCN2C(=O)[C@H](COCC(C)(C)O)N(C)C1=O [Compound 1122] (cyclo([Ac5c][NMeV][d(β3hA)][NMeL]I[NMeS](CH2CMe2OH)[Aze][NMeCha][Sar][hPhe(3-Cl-4-CF3)]P)) | 67
2 | CC[C@H](C)[C@@H]1NC(=O)[C@H](CC(C)C)N(C)C(=O)C[C@@H](C(=O)N2CCCCC2)N(C)C(=O)[C@H](C2CCCCC2)N(C)C(=O)C2(CCCC2)NC(=O)CN(CC2COC2)C(=O)[C@H](CCc2ccc(C(F)(F)F)c(Cl)c2)NC(=O)CN(C)C(=O)[C@H](CC2CCCCC2)N(C)C(=O)CN(C)C(=O)CN(C)C1=O [Compound 2031] ([NMeL]I[Sar][Sar][NMeCha][Sar][hPhe(3-Cl-4-CF3)][X12][Ac5c][NMeChg][NMeD]-Piperidide; lactam N-11 (inferred); C-terminus assumed) | 0.82
3 | CC[C@H](C)[C@@H]1NC(=O)[C@H](C)N(C)C(=O)C[C@@H](C)NC(=O)[C@H](CC(C)C)N(C)C(=O)C(C)(C)NC(=O)[C@H](CC(C)C)N(C)C(=O)[C@H](CCc2cccc(Cl)c2)NC(=O)CN(C)C(=O)[C@H](Cc2ccc(Cl)cc2)N(C)C(=O)CN(C)C(=O)CN(C)C1=O [Compound 153] (cyclo([Aib][NMeL][d(β3hA)][NMeA]I[Sar][Sar][NMePhe(4-Cl)][Sar][hPhe(3-Cl)][NMeL])) | 60
4 | CCOCCN1CC(=O)NC2(CCCC2)C(=O)N(C)[C@@H](C2CCCCC2)C(=O)N(C)[C@H](C(=O)N2CCCCC2)CC(=O)N(C)[C@@H](CC(C)C)C(=O)N[C@@H]([C@@H](C)CC)C(=O)N(C)CC(=O)N(C)CC(=O)N(C)[C@@H](CC2CCCCC2)C(=O)N(C)CC(=O)N[C@@H](CCc2ccc(C(F)(F)F)c(Cl)c2)C1=O [Compound 872, (11S,17S,26S,29S,33S,36S)-11-[2-[3-chloro-4-(trifluoromethyl)phenyl]ethyl]-36-cyclohexyl-17-(cyclohexylmethyl)-9-(2-ethoxyethyl)-29-isobutyl-15,18,21,24,30,34,37-heptamethyl-26-[(1S)-1-methylpropyl]-33-(piperidine-1-carbonyl)-6,9,12,15,18,21,24,27,30,34,37-undecazaspiro[4.33]octatriacontane-7,10,13,16,19,22,25,28,31,35,38-undecone] ([NMeL]I[Sar][Sar][NMeCha][Sar][hPhe(3-Cl-4-CF3)][Gly(N-(CH2)2OEt)][Ac5c][NMeChg][NMeD]-Piperidide; lactam N-11) | 1.9
5 | CC[C@H](C)[C@@H]1NC(=O)[C@H](CC(C)C)N(C)C(=O)C[C@@H](C)NC(=O)[C@H](C2CCCC2)N(C)C(=O)C2(CCCC2)NC(=O)[C@@H]2CCCN2C(=O)[C@H](CCc2ccc(C(F)(F)F)c(Cl)c2)NC(=O)CN(C)C(=O)[C@H](CC2CCCCC2)N(C)C(=O)[C@@H]2CCN2C(=O)[C@H](C)N(C)C1=O [Compound 1477] (cyclo([Ac5c][NMeGly(cPent)][d(β3hA)][NMeL]I[NMeA][Aze][NMeCha][Sar][hPhe(3-Cl-4-CF3)]P)) | 28
6 | CC[C@H](C)[C@@H]1NC(=O)[C@H](CC2CCCCC2)N(C)C(=O)C[C@@H](C)NC(=O)[C@H](CC(C)C)N(C)C(=O)C2(CCCC2)NC(=O)[C@H](CC(C)C)N(C)C(=O)[C@H](CCc2ccc(C(F)(F)F)cc2)NC(=O)CN(C)C(=O)[C@H](Cc2ccc(Cl)cc2)N(C)C(=O)CN(C)C(=O)CN(C)C1=O [Compound 583] (cyclo([Ac5c][NMeL][d(β3hA)][NMeCha]I[Sar][Sar][NMePhe(4-Cl)][Sar][hPhe(4-CF3)][NMeL])) | 370
7 | CC[C@H](C)[C@@H]1NC(=O)[C@H](CC(C)C)N(C)C(=O)C[C@@H](C)N(C)C(=O)[C@H](C2CCCCC2)N(C)C(=O)C2(CCCC2)NC(=O)[C@@H]2CCCN2C(=O)[C@H](CCc2ccc(C(F)(F)F)c(Cl)c2)NC(=O)CN(C)C(=O)[C@H](Cc2ccc(C(F)(F)F)cc2)N(C)C(=O)[C@@H]2CCN2C(=O)[C@H](C)N(C)C1=O [Compound 348] (cyclo([Ac5c][NMeChg][NMedβ3hAla][NMeL]I[NMeA][Aze][NMePhe(4-CF3)][Sar][hPhe(3-Cl-4-CF3)]P)) | 6
8 | CC[C@H](C)[C@@H]1NC(=O)[C@H](CC(C)C)N(C)C(=O)C[C@@H](C(=O)N2CCCCC2)N(C)C(=O)[C@H](C(C)C)N(C)C(=O)C2(CCCC2)NC(=O)[C@@H]2CCCN2C(=O)[C@H](CCc2ccc(C(F)(F)F)c(F)c2)NC(=O)CN(C)C(=O)[C@H](CC2CCCCC2)N(C)C(=O)[C@@H]2CCN2C(=O)CN(C)C1=O [Compound 599] ([NMeL]I[Sar][Aze][NMeCha][Sar][hPhe(3-F,4-CF3)]P[Ac5c][NMeV][NMeD]-Piperidide; lactam N-11) | 12
9 | CCC[C@H]1C(=O)N(C)[C@H](C(=O)N2CCCCC2)CC(=O)N(C)[C@@H](CC(C)C)C(=O)N[C@@H]([C@@H](C)CC)C(=O)N(C)[C@@H](C)C(=O)N2CC[C@H]2C(=O)N(C)[C@@H](CC2CCCCC2)C(=O)N(C)CC(=O)N[C@@H](CCc2ccc(C(F)(F)F)c(Cl)c2)C(=O)N2CCC[C@H]2C(=O)NC2(CCCC2)C(=O)N1C [Compound 995] ([NMeL]I[NMeA][Aze][NMeCha][Sar][hPhe(3-Cl-4-CF3)]P[Ac5c][NMeNva][NMeD]-Piperidide; lactam N-11) | 5.7
10 | C#CC[C@@H]1CC(=O)N(C)[C@@H](C(C)C)C(=O)N[C@@H]([C@@H](C)CC)C(=O)N(C)CC(=O)N(C)CC(=O)N(C)[C@@H](Cc2ccc(Cl)cc2)C(=O)N(C)CC(=O)N[C@@H](CCc2ccc(C(F)(F)F)cc2)C(=O)N(C)[C@@H](CC(C)C)C(=O)NC2(CCCC2)C(=O)N(C)[C@@H](CC(C)C)C(=O)N1 [Compound 669] (cyclo([Ac5c][NMeL][X4][NMeV]I[Sar][Sar][NMePhe(4-Cl)][Sar][hPhe(4-CF3)][NMeL])) | 220
11 | CC[C@H](C)[C@@H]1NC(=O)[C@H](CC2CCC2)N(C)C(=O)C[C@@H](C)NC(=O)[C@H](C(C)C)N(C)C(=O)C2(CCCC2)NC(=O)[C@@H]2CCCN2C(=O)[C@H](CCc2ccc(C(F)(F)F)c(Cl)c2)NC(=O)CN(C)C(=O)[C@H](CC2CCCCC2)N(C)C(=O)[C@@H]2CCN2C(=O)[C@H](C)N(C)C1=O [Compound 455] (cyclo([Ac5c][NMeV][d(β3hA)][NMeCba]I[NMeA][Aze][NMeCha][Sar][hPhe(3-Cl-4-CF3)]P)) | 59
12 | CC[C@H](C)[C@@H]1NC(=O)[C@H](CC(C)C)N(C)C(=O)C[C@@H](C(=O)N2CCCCC2)N(C)C(=O)[C@H](C2CCCCC2)N(C)C(=O)C2(CCCC2)NC(=O)[C@@H]2CCCN2C(=O)[C@H](CCc2ccc(C(F)(F)F)c(Cl)c2)NC(=O)CN(C)C(=O)[C@H](Cc2ccc(C)cc2)N(C)C(=O)[C@@H]2CCN2C(=O)[C@H](C)N(C)C1=O [Compound 1795] ([NMeL]I[NMeA][Aze][NMePhe(4-Me)][Sar][hPhe(3-Cl-4-CF3)]P[Ac5c][NMeChg][NMeD]-Piperidide; lactam N-11) | 0.99
13 | CCC[C@H]1C(=O)N2CC[C@H]2C(=O)N(C)[C@@H](CC2CCCCC2)C(=O)N(C)CC(=O)N[C@@H](CCc2ccc(C(F)(F)F)c(Cl)c2)C(=O)N2CCC[C@H]2C(=O)NC2(CCCC2)C(=O)N(C)[C@@H](C(C)C)C(=O)N[C@H](C)CC(=O)N(C)[C@@H](CC(C)C)C(=O)N[C@@H]([C@@H](C)CC)C(=O)N1C [Compound 1560] (cyclo([Ac5c][NMeV][d(β3hA)][NMeL]I[NMeNva][Aze][NMeCha][Sar][hPhe(3-Cl-4-CF3)]P)) | 160
14 | CC[C@H](C)[C@@H]1NC(=O)[C@H](CC(C)C)N(C)C(=O)C[C@@H](C(=O)N2CCCCC2)N(C)C(=O)[C@H]([C@@H](C)CC)N(C)C(=O)C2(CCCC2)NC(=O)[C@@H]2CCCN2C(=O)[C@H](CCc2ccc(C(F)(F)F)c(Cl)c2)NC(=O)CN(C)C(=O)[C@H](Cc2ccc(C)cc2)N(C)C(=O)[C@@H]2CCN2C(=O)[C@H](C)N(C)C1=O [Compound 1727] ([NMeL]I[NMeA][Aze][NMePhe(4-Me)][Sar][hPhe(3-Cl-4-CF3)]P[Ac5c][NMeI][NMeD]-Piperidide; lactam N-11) | 1.2
15 | CC(C)C[C@H]1C(=O)N[C@@H](C2CCCCC2)C(=O)N(C)[C@@H](C)C(=O)N2CC[C@H]2C(=O)N(C)[C@@H](CC2CCCCC2)C(=O)N(C)CC(=O)N[C@@H](CCc2ccc(C(F)(F)F)c(Cl)c2)C(=O)N2CCC[C@H]2C(=O)NC2(CCCC2)C(=O)N(C)[C@@H](C(C)C)C(=O)N(C)[C@H](C(=O)N2CCCCC2)CC(=O)N1C [Compound 642] ([NMeL][Chg][NMeA][Aze][NMeCha][Sar][hPhe(3-Cl-4-CF3)]P[Ac5c][NMeV][NMeD]-Piperidide; lactam N-11) | 54
16 | CC[C@H](C)[C@@H]1NC(=O)[C@H](CC(C)C)N(C)C(=O)C[C@@H](C(=O)N2CCOCC2)N(C)C(=O)[C@H](C2CCCC2)N(C)C(=O)C2(CCCC2)NC(=O)[C@H](CCC(=O)N2CCCCC2)N(C)C(=O)[C@H](CCc2ccc(C(F)(F)F)c(Cl)c2)NC(=O)CN(C)C(=O)[C@H](CC2CCCCC2)N(C)C(=O)[C@@H]2CCN2C(=O)[C@H](C)N(C)C1=O [Compound 2112] ([NMeL]I[NMeA][Aze][NMeCha][Sar][hPhe(3-Cl-4-CF3)][NMeE](Piperidide)[Ac5c][NMeGly(cPent)][NMeD]-Morpholide; lactam N-11) | 11
17 | CC[C@H](C)[C@@H]1NC(=O)[C@H](CC(C)C)N(C)C(=O)C[C@@H](C(=O)N2CCCCC2)N(C)C(=O)[C@H]([C@@H](C)OC)N(C)C(=O)C2(CCCC2)NC(=O)[C@@H]2CCCN2C(=O)[C@H](CCc2ccc(C(F)(F)F)c(Cl)c2)NC(=O)CN(C)C(=O)[C@H](CC2CCCCC2)N(C)C(=O)[C@@H]2CCN2C(=O)[C@H](C)N(C)C1=O [Compound 639] ([NMeL]I[NMeA][Aze][NMeCha][Sar][hPhe(3-Cl-4-CF3)]P[Ac5c][NMeT](Me)[NMeD]-Piperidide; lactam N-11) | 14
